Experimental data: patent US20260242398A1, “BENZOPYRIMIDIN-4(3H)-ONES AS PI3K INHIBITORS” (OnKure, Inc., priority 2022, published 2026)
Like-named read-outs stand apart in the source and are kept apart here.

Columns and labels:
[1] = test system: SKBR3 cells express WT PI3Ka; experiment: In vitro cell proliferation (CellTiter-Glo, 72 hours), SKBR3 cells; assay type: cell-based; conditions: Homo sapiens, SK-BR-3, 72 h, inhibition of proliferation
Method in brief: (§1)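 1,500 cells/well (T47D in RPMI/10% FBS/insulin 0.2 units/mL; SKBR3 in McCoys 5a/10% FBS) plated onto 10-point compound dilutions and grown 72 h at 37 °C, 5% CO2; CellTiter-Glo luminescence. Inhibition scaled between 0.1% DMSO and 10 uM alpelisib; EC50 from four-parameter logistic fit.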

[2] = test system: T47D cells expressing mutant PI3Ka (H1047R); experiment: In vitro cell proliferation (CellTiter-Glo, 72 hours), T47D cells; assay type: cell-based; conditions: inhibition of proliferation, read-out: Avg T-47D EC50
Method in brief: as §1

[3] = Mouse pharmacokinetics, single IV or PO dose, plasma LC/MS/MS; assay type: in vivo; conditions: CD1 mice; for PK-Mouse: PO F: PO 10 mg/kg vs IV 1 mg/kg; for AUC(0-t) / clearance: mouse, plasma; for clearance: read-out: PK-Mouse: IV Cl
Experimental: CD1 mice were dosed with a single IV or PO dose, followed by serial sampling of plasma at 0.0833 (IV only), 0.25, 0.5, 1, 2, 4, 8, 24 hours post dose. Desired serial concentrations of working solutions were achieved by diluting stock solution of analyte with 50% acetonitrile in water solution. 10 μL of working solutions (0.5, 1, 2, 5, 10, 50, 100, 500, 1000 ng/mL) were added to 10 μL of the blank Female CD1 Mouse plasma to achieve calibration standards of 0.5~1000 ng/mL (0.5, 1, 2, 5, 10, 50, 100, 500, 1000 ng/mL) in a total volume of […]. Five quality control samples at 1 ng/mL, 2 ng/mL, 5 ng/mL, 50 ng/mL and 800 ng/mL for plasma were prepared independently of those used for the calibration curves. These QC samples were prepared on the day of analysis in the same way as calibration standards. 20 μL standards, 20 μL QC samples and 20 μL unknown samples (10 μL plasma with 10 μL blank solution) were added to 200 μL of acetonitrile containing IS mixture for precipitating protein respectively. Then the samples were vortexed for 30 s. after centrifugation at 4° Celsius, 4000 rpm for 15 min. The supernatant was diluted with water at a ratio of 1:2 (V/V, 1:2), Then 5 μL of diluted supernatant was injected into the LC/MS/MS system for quantitative analysis.

[4] = test system: phosphorylation of AKT (pAKT) in SKBR3 cells express WT PI3Ka; experiment: In vitro cell pAKT (Ser473) HTRF, SKBR3 cells; assay type: cell-based; conditions: Homo sapiens, SK-BR-3, 6 h, inhibition of pAKT
Method in brief: (§2)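 T47D (PI3Kα H1047R; RPMI, 10% FBS, insulin) or SKBR3 (WT PI3Kα; McCoy's 5a, 10% FBS) cells, 5000/well, are treated with 10-point compound dilutions for 6 h at 37° C. Lysates are read for pAKT Ser473 by HTRF. Inhibition is normalised to DMSO (0%) and 10 μM alpelisib (100%), and IC50 comes from a four-parameter fit.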

[5] = test system: phosphorylation of AKT (pAKT) in T47D cells expressing mutant PI3Ka (H1047R); experiment: In vitro cell pAKT (Ser473) HTRF, T47D cells; assay type: cell-based; conditions: inhibition of pAKT, 6 hour, read-out: Avg T-47D IC50
Method in brief: as §2

[6] = IV 1 mg/kg, solution in 20% PEG400/20% PG/60% of 20% HPBCD solution in water, read-out: PK-Mouse: IV AUC last
[7] = IV 1 mg/kg, solution in 20% PEG400/20% PG/60% of 20% HPBCD solution in water
[8] = PO 10 mg/kg, suspension in 30% SBEβCD in water, read-out: PK-Mouse PO AUC last

SMILES: Cc1cc(C(C)Nc2ccc(F)cc2C(=O)O)c2nc(N3CCC(C)(C)CC3)n(C)c(=O)c2c1 (single isomer, unassigned) [Example 29, 2-((1-(2-(4,4-dimethylpiperidin-1-yl)-3,6-dimethyl-4-oxo-3,4-dihydroquinazolin-8-yl)ethyl)amino)-5-fluorobenzoic acid]
- EC50 [1]: 2000 to 15000 nM
- EC50 [2]: 1 to 500 nM
- PK-Mouse: PO F [3]: 61%
- AUC(0-t) [3, 6]: 1740 ng·h/mL
- clearance [3, 7]: 8.7 mL/min/kg
- AUC(0-t) [3, 8]: 10700 ng·h/mL
- IC50 [4]: > 15000 nM
- IC50 [5]: 1 to 1000 nM

SMILES: CC(Nc1ccccc1C(=O)O)c1cc(F)cc2c(=O)n(C)c(N3CCN(CC(F)(F)F)CC3)nc12 (single isomer, unassigned) [Example 35, 2-((1-(6-fluoro-3-methyl-4-oxo-2-(4-(2,2,2-trifluoroethyl)piperazin-1-yl)-3,4-dihydroquinazolin-8-yl)ethyl)amino)benzoic acid]
- EC50 [1]: > 15000 nM
- EC50 [2]: 500 to 2000 nM
- PK-Mouse: PO F [3]: 187%
- AUC(0-t) [3, 6]: 242 ng·h/mL
- clearance [3, 7]: 59.5 mL/min/kg
- AUC(0-t) [3, 8]: 4520 ng·h/mL
- IC50 [4]: > 15000 nM
- IC50 [5]: 1 to 1000 nM
